Assay results reported in US10703756B2, “Pyrrolo[2,3-D]pyrimidinyl, pyrrolo[2,3-B]pyrazinyl, pyrrolo[2,3-B]pyridinyl acrylamides and epoxides thereof” (Pfizer Inc., priority 2015, dated 2020).

What follows are compounds tested on IL-15 induced P-STAT5 in human PBMC (assay: PBMC IL-15 Induced P-STAT5). Conditions: human PBMC, IL-15 final 41 ng/mL; read-out: PBMC IL15_pSTAT5_IC50.
Format: cell-based
How it was run: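 Thawed human PBMC, rested in human plasma, were preincubated 15 min at 37 °C with compound (0.2% DMSO), then stimulated 15 min with IL-15 at 41 ng/mL final. After paraformaldehyde fixation and methanol permeabilisation, Alexa Fluor 647 anti-STAT5 staining overnight at 4 °C was analysed by flow cytometry on total lymphocytes.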

Point of comparison: `C=CC(=O)N1CCC(C)(Nc2cnc3[nH]cc(C(=O)NC4CCC4)c3n2)CC1` [Example 324, 2-[(1-acryloyl-4-methylpiperidin-4-yl)amino]-N-cyclobutyl-5H-pyrrolo[2,3-b]pyrazine-7-carboxamide], IC50 203 nM. Against it:
- C=CC(=O)N1CCC(Oc2cnc3[nH]cc(C(=O)N[C@H](C)CC)c3n2)CC1 [Example 227, 2-[(1-acryloylpiperidin-4-yl)oxy]-N-[(2R)-butan-2-yl]-5H-pyrrolo[2,3-b]pyrazine-7-carboxamide] — within 1.5-fold, 146 nM
- C=CC(=O)N1CCC(Oc2cnc3[nH]cc(C(=O)N[C@@H](C)COC)c3n2)CC1 [Example 228, 2-[(1-acryloylpiperidin-4-yl)oxy]-N-[(2S)-1-methoxypropan-2-yl]-5H-pyrrolo[2,3-b]pyrazine-7-carboxamide] — 2.2-fold lower, 93.3 nM
- C=CC(=O)N1CCC(Oc2cnc3[nH]cc(C(=O)N[C@@H]4CCC[C@H]4F)c3n2)CC1 [Example 229, 2-[(1-acryloylpiperidin-4-yl)oxy]-N-[(1R,2R)-2-fluorocyclopentyl]-5H-pyrrolo[2,3-b]pyrazine-7-carboxamide] — within 1.5-fold, 221 nM
- C=CC(=O)N1CCC(Oc2cnc3[nH]cc(C(=O)N[C@@H]4CCC[C@@H]4F)c3n2)CC1 [Example 230, 2-[(1-acryloylpiperidin-4-yl)oxy]-N-[(1R,2S)-2-fluorocyclopentyl]-5H-pyrrolo[2,3-b]pyrazine-7-carboxamide] — within 1.5-fold, 155 nM
- C=CC(=O)N1CC[C@H](Nc2cnc3[nH]cc(C(=O)NCC4CCCC4)c3n2)[C@H](OC)C1 [Example 284, 2-{[(3R,4S)-1-acryloyl-3-methoxypiperidin-4-yl]amino}-N-(cyclopentylmethyl)-5H-pyrrolo[2,3-b]pyrazine-7-carboxamide] — within 1.5-fold, 186 nM
- C=CC(=O)N1CCN(c2cnc3[nH]cc(C(=O)NCC(C)C)c3n2)C[C@@H]1CC(C)C [Example 288, 2-[(3S)-4-acryloyl-3-(2-methylpropyl)piperazin-1-yl]-N-(2-methylpropyl)-5H-pyrrolo[2,3-b]pyrazine-7-carboxamide] — within 1.5-fold, 151 nM
- C=CC(=O)N1CC[C@H](Nc2cnc3[nH]cc(C(=O)NCC(F)(F)F)c3n2)[C@H](OC)C1 [Example 293, 2-{[(3R,4S)-1-acryloyl-3-methoxypiperidin-4-yl]amino}-N-(2,2,2-trifluoroethyl)-5H-pyrrolo[2,3-b]pyrazine-7-carboxamide] — within 1.5-fold, 218 nM
- C=CC(=O)N1CCN(c2cnc3[nH]cc(C(=O)N[C@@H](C)COC)c3n2)CC1 [Example 295, 2-(4-acryloylpiperazin-1-yl)-N-[(2S)-1-methoxypropan-2-yl]-5H-pyrrolo[2,3-b]pyrazine-7-carboxamide] — 2.9-fold lower, 71 nM
- C=CC(=O)N1CCN(c2cnc3[nH]cc(C(=O)N[C@@H](C)COC)c3n2)CC1(C)C [Example 298, 2-(4-acryloyl-3,3-dimethylpiperazin-1-yl)-N-[(2S)-1-methoxypropan-2-yl]-5H-pyrrolo[2,3-b]pyrazine-7-carboxamide] — within 1.5-fold, 210 nM
- C=CC(=O)N1CCN(c2cnc3[nH]cc(C(=O)N[C@H](CC)CC#N)c3n2)C[C@@H]1CC(C)C [Example 314, 2-[(3S)-4-acryloyl-3-(2-methylpropyl)piperazin-1-yl]-N-[(2R)-1-cyanobutan-2-yl]-5H-pyrrolo[2,3-b]pyrazine-7-carboxamide] — 1.8-fold lower, 115 nM
- C=CC(=O)N1CC[C@H](Nc2cnc3[nH]cc(C(=O)NCCCC(F)(F)F)c3n2)[C@H](OC)C1 [Example 319, 2-{[(3R,4S)-1-acryloyl-3-methoxypiperidin-4-yl]amino}-N-(4,4,4-trifluorobutyl)-5H-pyrrolo[2,3-b]pyrazine-7-carboxamide] — within 1.5-fold, 211 nM
- C=CC(=O)N1CC[C@@H](Nc2cnc3[nH]cc(C(=O)NCC(C)(F)F)c3n2)[C@@H](OC)C1 [Example 321, 2-{[(3S,4R)-1-acryloyl-3-methoxypiperidin-4-yl]amino}-N-(2,2-difluoropropyl)-5H-pyrrolo[2,3-b]pyrazine-7-carboxamide] — 1.5-fold higher, 310 nM
- C=CC(=O)N1CC[C@H](Nc2cnc3[nH]cc(C(=O)NCC)c3n2)[C@H](OC)C1 [Example 326, 2-{[(3R,4S)-1-acryloyl-3-methoxypiperidin-4-yl]amino}-N-ethyl-5H-pyrrolo[2,3-b]pyrazine-7-carboxamide] — 1.6-fold higher, 330 nM
- C=CC(=O)N1CCN(c2cnc3[nH]cc(C(=O)N[C@H](C)COC)c3n2)CC1(C)C [Example 327] — within 1.5-fold, 261 nM
- C=CC(=O)N1CC[C@@H](Nc2cnc3[nH]cc(C(=O)N[C@H](C)COC)c3n2)[C@@H](OC)C1 [Example 331, 2-{[(3S,4R)-1-acryloyl-3-methoxypiperidin-4-yl]amino}-N-[(2R)-1-methoxypropan-2-yl]-5H-pyrrolo[2,3-b]pyrazine-7-carboxamide] — within 1.5-fold, 288 nM
- C=CC(=O)N1CCN(c2cnc3[nH]cc(C(=O)N[C@H](C)COC)c3n2)CC1 [Example 332] — 2.3-fold lower, 87.7 nM
